# Legend:
# Experiment in all cases: area under concentration-response curve (viability) (AUC (a.u.)); higher = less active
# Conditions in all cases: 48 h
# CU-ACC2 = system: CU-ACC2
# Outline: (§1)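 Three adrenocortical carcinoma cell lines were plated in 1,536-well plates at 500–1,000 cells/well in 5 µL medium, and 23 nL of each library compound was added at 11 concentrations. After 48 h, CellTiter-Glo was applied for 15 minutes at room temperature before luminescence was read. Each plate's signals were normalised to vehicle and empty-well controls. AC50 and area under the curve were taken from fitted concentration-response curves, with only inhibitory or non-responding curve classes retained.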
# NCI-H295R = system: NCI-H295R
# Outline: as §1
# CU-ACC1 = system: CU-ACC1
# Outline: as §1
Structure (SMILES),area under concentration-response curve (CU-ACC2),area under concentration-response curve (NCI-H295R),area under concentration-response curve (CU-ACC1)
N#Cc1cccc(-c2c[nH]c3ncnc(N4CCOCC4)c23)c1,595,553,508
CC(C)=CCC/C(C)=C/CC/C(C)=C/CSc1ccccc1C(=O)O,598,540,527
N[C@@H](CC(=O)N1CCn2c(nnc2C(F)(F)F)C1)Cc1cc(F)c(F)cc1F,597,555,554
O=C(CO)N1CCC(c2n[nH]c(-c3ccc(Cl)cc3)c2-c2ccncn2)CC1,454,515,520
CNC[C@H](O)[C@@H](O)[C@H](O)[C@H](O)CO,542,547,421
CNC(=O)c1ccc(-c2cnc3ncc(Cc4ccc5ncccc5c4)n3n2)cc1F,520,511,481
CC1Cc2ccccc2N1NC(=O)c1ccc(Cl)c([S+](N)(=O)[O-])c1 (centres undefined),583,531,488
Nc1n[nH]c2nnc(-c3c(-c4ccccc4)nn4ccccc34)cc12,595,515,489
COc1cc2c(NC3CCN(C4CCCCC4)CC3)nc(N3CCCN(C(C)C)CC3)nc2cc1OCCCN1CCCCC1,562,519,534
N#C/C(=C\c1ccc(O)c(O)c1)C(=O)NCc1ccccc1,605,572,427
CCOC(=O)[C@H]1O[C@@H]1C(=O)N[C@@H](CC(C)C)C(=O)NCCC(C)C,589,527,566
CC(C)C(=O)OCC(=O)[C@@]12O[C@@H](O[C@@H]1C[C@H]3[C@@H]4CC\C5=C\C(=O)\C=C/[C@]5(C)[C@H]4[C@@H](O)C[C@]23C)C6CCCCC6,606,531,523
C[C@]12CC(=O)[C@H]3[C@@H](CC\C4=C\C(=O)\C=C/[C@]34C)[C@@H]1CC[C@]2(O)C(=O)CO,652,580,547
C[C@H](c1ccc(F)cc1CCCC(=O)O)N(c1cc(F)ccc1F)[S+](=O)([O-])c1ccc(Cl)cc1,596,553,519
OC1=CC2=C(C(=C1)O)C(=O)\C(=C(/O2)C3=CC(=C(O)C(=C3)O)O)O,600,508,553
C[C@H](CCC(=O)O)[C@H]1CCC2C3C[C@H](O)[C@@H]4C[C@H](O)CC[C@]4(C)C3CC[C@@]21C (some centres undefined),501,470,454
N#CN1CCC[C@@H](n2nc(-c3ccc(Oc4ccc(F)cc4F)cc3)c(C(N)=O)c2N)C1,607,553,487
COC1=C(OC)C=C2CN(CCC3=CC=C(C=C3)[N]4N=NC(=N4)C5=CC(=C(OC)C=C5NC(=O)\C6=C\C(=O)C7=CC=CC=C7O6)OC)CCC2=C1,654,688,735
CC#CCn1c(N2CCC[C@@H](N)C2)nc2c1c(=O)n(Cc1nc(C)c3ccccc3n1)c(=O)n2C,606,561,503
F\C1=C\N(C2CCCO2)C(=O)NC1=O (centres undefined),612,511,512
COC(=O)N(C)c1c(N)nc(-c2nn(Cc3ccccc3F)c3ncccc23)nc1N,586,488,488
OCCN1C[C@H](O)[C@@H](O)[C@H](O)[C@H]1CO,540,489,519

Structure (SMILES),area under concentration-response curve (CU-ACC2),area under concentration-response curve (NCI-H295R),area under concentration-response curve (CU-ACC1)
CN[C@H](CC(C)C)C(=O)N[C@H]1C(=O)N[C@@H](CC(N)=O)C(=O)N[C@H]2C(=O)N[C@H]3C(=O)N[C@H](C(=O)N[C@H](C(=O)O)c4cc(O)cc(O)c4-c4cc3ccc4O)[C@H](O)c3ccc(c(Cl)c3)Oc3cc2cc(c3O[C@@H]2O[C@H](CO)[C@@H](O)[C@H](O)[C@H]2O[C@H]2C[C@](C)(N)[C@H](O)[C@H](C)O2)Oc2ccc(cc2Cl)[C@H]1O,676,614,589
CCC(=O)O[C@@]1(CC[C@H]2[C@@H]3CCC/4=C/C(=O)CC[C@]4(C)[C@H]3CC[C@]12C)C(=O)CO,585,518,508
CCOC\1=C(/C(=O)NC2=CC=C(OC3=C(Cl)C(=NC=C3)N)C(=C2)F)C(=O)N(\C=C1)C4=CC=C(F)C=C4,578,530,522
CN(Cc1cnc2nc(N)nc(N)c2n1)c1ccc(C(=O)N[C@@H](CCC(=O)O)C(=O)O)cc1,615,539,508
NC[C@H]1CC[C@H](C(=O)O)CC1,586,452,497
Cn1cc(-c2ccc3ncc(Cc4ccc5ncccc5c4)n3n2)cn1,545,497,450
Cc1cc(C)cc(Oc2ccc(CNC(=O)[C@H](C)N)cc2C)c1,559,509,478
CCCCCCCCCC(=O)N[C@@H](Cc1c[nH]c2ccccc12)C(=O)N[C@H](CC(N)=O)C(=O)N[C@@H](CC(=O)O)C(=O)N[C@@H]1C(=O)NCC(=O)N[C@@H](CCCN)C(=O)N[C@@H](CC(=O)O)C(=O)N[C@H](C)C(=O)N[C@@H](CC(=O)O)C(=O)NCC(=O)N[C@H](CO)C(=O)N[C@@H]([C@@H](C)CC(=O)O)C(=O)N[C@@H](CC(=O)c2ccccc2N)C(=O)O[C@@H]1C,606,496,485
Cn1cc(-c2ccc(F)c(C(F)(F)F)c2)nc1C1CCN(c2ncnc3[nH]ncc23)CC1,555,510,471
CC1=CC(=O)c2ccccc2C1=O,530,501,495
CN(C)c1ccc(-c2nc3c(N4CCN(CC(=O)Nc5nccs5)CC4)c(Cl)cnc3[nH]2)cc1,658,600,618
C/C=C/C[C@@H](C)C(=O)[C@H]1C(=O)N[C@@H](C(C)C)C(=O)N(C)CC(=O)N(C)[C@@H](CC(C)C)C(=O)N[C@@H](C(C)C)C(=O)N(C)[C@@H](CC(C)C)C(=O)N[C@@H](C)C(=O)N[C@H](C)C(=O)N(C)[C@@H](CC(C)C)C(=O)N(C)[C@@H](CC(C)C)C(=O)N(C)[C@@H](C(C)C)C(=O)N1C,633,524,534
CC1=C(CC(=O)O)c2cc(F)ccc2/C1=C\c1ccc([S+](C)[O-])cc1 (centres undefined),647,573,526
COCCCN1CCC(NC(=O)c2cc(Cl)c(N)c3c2OCC3)CC1,549,565,562
O=C(O)C(=O)Nc1cccc(-c2nnn[nH]2)c1,645,553,547
CN1CCC(CC1)COC2=CN=C(N=C2)C3=CC(=CC=C3)CN4/N=C(\C=C/C4=O)C5=CC(=CC=C5)C#N,596,549,474
O=C1CCC[C@@H]2[C@H]3CCC[N+]4([O-])CCC[C@@H](CN12)[C@@H]34 (some centres undefined),610,552,536
OC[C@@H](O)[C@@H](O)[C@H](O)[C@@H](O)CO,645,592,562
COC1=CC(=CC=C1)C2=CC=C(NC(=O)/C3=C(/CCC3)C(O)=O)C(=C2)F,509,491,450
CC(C)(CO)n1cc(C(=O)c2cncc(NC(=O)Cc3ccc(Cl)cn3)c2)c2cnc(N)nc21,576,496,532
COc1ccc(/C=C\c2cc(OC)c(OC)c(OC)c2)cc1NC(=O)[C@H](N)CO,594,521,542

# Source: the supplement of paper PMC10949913
